Entries after “also recorded” stand apart in the source; their conditions may differ. Read-outs that look alike come from different tables or passages of the source.
Assays:
beta-adrenergic = assay: Beta-adrenergic blocking activity of metabolites (Table 2); assay type: in vivo; conditions: for Beta-adrenergic blocking activity compared with PROPRANOLOL, in words: in vivo
heart rate [1] = assay: Change in heart rate at the dosage required for manifestation of the beta-adrenergic blocking activity (Table 2); assay type: in vivo
rat [2] = assay: Behavior analysis, rat; conditions: 4 hours observation
Method: (§1) The chemical to be tested was administered orally, and observations of the behaviors of the rats were carried out for 4 hours after administration of the chemical.
One group consisted of three rats.

[3] = oral; cited from earlier work
mouse [4] = assay: Behavior analysis, mouse (simplified Irwin's multidimensional method); conditions: 4 hours observation
Description: (§2) The effects of chemicals on the behavior of mouse was examined by a simplified method of Irwin's multidimensional behavior analysis method.

angina pectoris patients = assay: Clinical test: bicycle ergometer exercise test in angina pectoris patients, double blind cross over; assay type: in vivo, human; design: Change in heart rate b)-a): unit not given here; conditions: for Change in heart rate b)-a) / Exercise time / a) Heart rate before exercise / b) Heart rate after exercise: compound A 5 mg twice daily, PROPRANOLOL 40 mg × 2, third day; for b) Heart rate after exercise: in beats/min (unit assumed)
Method: A test was then conducted on the third day 3 hours after the first administration. […] The test was carried out by the double blind method with a cross over test having a rest period of 10 days. The test method consisted of an exercise test utilizing a bicycle ergometer. After measuring the heart rates of the patients before starting the test, the patients were made to pedal the bicycle ergometer until they were seized with an attack of anginal pain, the effectiveness of the chemicals being judged by the time up to the attack and the heart rate at that time.

[5] = test system: beta-adrenergic (heart rate increase due to ISOPROTERENOL); assay: Beta-adrenergic blocking activity in the case of intravenous injection, rat (antagonism to heart rate increase due to ISOPROTERENOL); assay type: in vivo, rat (Wistar)
Method: 1. Beta-adrenergic blocking activity in the case of intravenous injection (Antagonism to heart rate increase due to ISOPROTERENOL)
a. Male rats of Wistar strain weighing ca. 300 grams were anesthetized with PENTOBARBITAL-Na (60 mg/kg i.p.), after which they are secured in a supine position. The electrocardiogram was registered in the second lead, on a polygraph. ISOPROTERENOL (0.1 μg/kg) was administered through the left femoral vein at 7-minute intervals.
The heart rate increase for the first two times was averaged and used as control.
The antagonistic chemical was intravenously injected from the third time the ISOPROTERENOL was administered, the administration being performed cumulatively and sequentially in the amounts of respectively 6.25, 25, 100 . . . μg/kg invariably at a point 2 minutes before each administration of ISOPROTERENOL until the effects thereof practically disappeared.

dog [6] = assay: Degree of safety (ratio of side reaction or lethal dosage to effective dosage), dog; conditions: in vivo, po
heart rate [7] = assay: Heart rate drop at the dosage required for manifestation of beta-adrenergic blocking activity, dog; assay type: in vivo
rat [8] = conditions: orally
rat [9] = assay: Degree of safety (ratio of side reaction or lethal dosage to effective dosage), rat; conditions: in vivo, po
[10] = in vivo
mouse [11] = conditions: in vivo, 240 min
Description: as §2

heart rate [12] = assay: Effect on heart rate (general statements); assay type: in vivo
rat [13] = conditions: in vivo, 240 min
Method: as §1
One group consisted of three rats.

dog [14] = conditions: orally
heart rate [15] = assay: Heart rate drop at the dosage required for manifestation of beta-adrenergic blocking activity, rat; assay type: in vivo

With `Cc1c(O)ccc(OCC(O)CNC(C)(C)C)c1C` (stereo not shown) [compound B] the “Relative beta-adrenergic blocking effectiveness as compared to PROPRANOLOL” value (beta-adrenergic; i.v.) was 5.5, the “Beta-adrenergic blocking activity compared with PROPRANOLOL, in words” value (beta-adrenergic) was “higher beta-adrenergic blocking activity than PROPRANOLOL” and the “Relative beta-adrenergic blocking effectiveness as compared to PROPRANOLOL” value (beta-adrenergic; p.o.) was 2.5. The “Action of suppressing the heart rate compared with PROPRANOLOL, in words” value (heart rate [1]; in vivo) was “lower action of suppressing the heart rate and lesser side reactions”, the “Change in heart rate at the dosage required for manifestation of the beta-adrenergic blocking activity” value (heart rate [1]; in vivo) was “+10 No./min” and the “Change in heart rate, % increase, at the dosage required for manifestation of the beta-adrenergic blocking activity” value (heart rate [1]; increase) was 3%. For the same molecule, the “Change in heart rate by injection, in words” value (heart rate [1]) was “small”.

With `Cc1c(CO)cccc1OCC(O)CNC(C)(C)C` (stereo not shown) [compound C] the “Relative beta-adrenergic blocking effectiveness as compared to PROPRANOLOL” value (beta-adrenergic; i.v.) was 4.5, the “Beta-adrenergic blocking activity compared with PROPRANOLOL, in words” value (beta-adrenergic) was “higher beta-adrenergic blocking activity than PROPRANOLOL” and the “Relative beta-adrenergic blocking effectiveness as compared to PROPRANOLOL” value (beta-adrenergic; p.o.) was 4.0. For the same molecule, the “Action of suppressing the heart rate compared with PROPRANOLOL, in words” value (heart rate [1]; in vivo) was “lower action of suppressing the heart rate and lesser side reactions” and the “Change in heart rate by injection, in words” value (heart rate [1]) was “small”.

For `CC(C)NCC(O)COc1cccc2ccccc12` (stereo not shown) [PROPRANOLOL, 1-naphthoxy-3-isopropylamino-2-propanol, reference compound], the “Dose at which effects appeared from the standpoints of behavior analysis (PO)” value (“Dose at which effects appeared” below) (rat [2]) is given as 25 mg, the “Metabolized when orally administered” value [3] is given as 90% and the “Dose at which effects appeared” value (mouse [4]) is given as 100 mg. For the same molecule, the “Change in heart rate b)-a)” value (angina pectoris patients; Case No. 1) was 35, the Exercise time (angina pectoris patients; Case No. 1) was 134 s and the a) Heart rate before exercise (angina pectoris patients; Case No. 1) was 74 beats/min. The “b) Heart rate after exercise” value (angina pectoris patients; Case No. 1) was 109, the “Change in heart rate b)-a)” value (angina pectoris patients; Case No. 2) was 27 and the Exercise time (angina pectoris patients; Case No. 2) was 146 s. The a) Heart rate before exercise (angina pectoris patients; Case No. 2) was 69 beats/min, the “b) Heart rate after exercise” value (angina pectoris patients; Case No. 2) was 96 and the “Change in heart rate b)-a)” value (angina pectoris patients; Case No. 3) was 27. For the same molecule, the Exercise time (angina pectoris patients; Case No. 3) was 102 s, the a) Heart rate before exercise (angina pectoris patients; Case No. 3) was 75 beats/min and the “b) Heart rate after exercise” value (angina pectoris patients; Case No. 3) was 102. For the same molecule, the “Change in heart rate b)-a)” value (angina pectoris patients; Mean of 3 cases) was 29.7, the Exercise time (angina pectoris patients; Mean of 3 cases) was 127.3 s and the a) Heart rate before exercise (angina pectoris patients; Mean of 3 cases) was 72.7 beats/min. The “b) Heart rate after exercise” value (angina pectoris patients; Mean of 3 cases) was 102.3 and the “Suppression of the heart rate vs placebo, in words” value (angina pectoris patients; as compared with the placebo) was “marked suppression of the heart rate”.

With `Cc1cccc(OCC(O)CNC(C)(C)C)c1C` (stereo not shown) [compound A, 1-(2',3'-dimethylphenoxy)-3-tert. butylamino-2-propanol] the “Relative effectiveness iv (beta-adrenergic blocking activity, PROPRANOLOL = 1.0)” value [5] was 2, the “Degree of safety, times that of PROPRANOLOL” value (dog [6]) was “more than 16 times” and the “Heart rate % drop at the dosage required for manifestation of beta-adrenergic blocking activity [ED50]” value (“Heart rate % drop at the dosage required” below) (heart rate [7]; PO) was 2%. For the same molecule, the “Heart rate drop at the dosage required for manifestation of beta-adrenergic blocking activity [ED50]” value (“Heart rate drop at the dosage required” for short) (heart rate [7]; PO) was 3 No/min, the “Heart rate % drop at the dosage required” value (heart rate [7]; iv) was 16% and the “Heart rate drop at the dosage required” value (heart rate [7]; iv) was 23 No/min. The LD50 (rat [8]) was 580 mg, the “Degree of safety, times that of PROPRANOLOL” value (rat [9]) was “about 14 times” and the “Degree of safety compared with the other similar compounds” value [10] was 7-20 times. The “Dose at which effects appeared” value (mouse [11]) was 200 mg, the “Effect on heart rate, in words” value (heart rate [12]; injection) was “high decrease in heart rate; also recorded: a drop in heart rate likewise takes place” and the “Effect on heart rate, in words” value (heart rate [12]; oral / intestinal absorption route) was “the normal heart rate is hardly affected at all; also recorded: practically no change in heart rate; also recorded: without hardly any effect on the heart rate”. For the same molecule, the “Dose at which effects appeared” value (rat [13]) was 50 mg, the LD50 (dog [14]) was 300 mg and the “Change in heart rate b)-a)” value (angina pectoris patients; Case No. 1) was 17. The Exercise time (angina pectoris patients; Case No. 1) was 187 s, the a) Heart rate before exercise (angina pectoris patients; Case No. 1) was 81 beats/min and the “b) Heart rate after exercise” value (angina pectoris patients; Case No. 1) was 98. For the same molecule, the “Change in heart rate b)-a)” value (angina pectoris patients; Case No. 2) was 20, the Exercise time (angina pectoris patients; Case No. 2) was 203 s and the a) Heart rate before exercise (angina pectoris patients; Case No. 2) was 76 beats/min. For the same molecule, the “b) Heart rate after exercise” value (angina pectoris patients; Case No. 2) was 96, the “Change in heart rate b)-a)” value (angina pectoris patients; Case No. 3) was 19 and the Exercise time (angina pectoris patients; Case No. 3) was 144 s. The a) Heart rate before exercise (angina pectoris patients; Case No. 3) was 84 beats/min, the “b) Heart rate after exercise” value (angina pectoris patients; Case No. 3) was 103 and the “Change in heart rate b)-a)” value (angina pectoris patients; Mean of 3 cases) was 18.7. For the same molecule, the Exercise time (angina pectoris patients; Mean of 3 cases) was 178.0 s, the a) Heart rate before exercise (angina pectoris patients; Mean of 3 cases) was 80.3 beats/min and the “b) Heart rate after exercise” value (angina pectoris patients; Mean of 3 cases) was 99.0. The “Exercise time up to attack with anginal pains vs placebo, in words” value (angina pectoris patients; as compared with the placebo) was “increases the exercise time up to the time the attack with anginal pains takes place”, the “Increase in the heart rate due to the exercise vs placebo, in words” value (angina pectoris patients; as compared with the placebo) was “suppresses the increase in the heart rate due to the exercise” and the “Suppression of the heart rate vs placebo, in words” value (angina pectoris patients; as compared with the placebo) was “practically no suppression of the heart rate”. The “Effectiveness compared with PROPRANOLOL, in words” value (angina pectoris patients; human, in vivo) was “far greater than that of PROPRANOLOL”, the “Heart rate % drop at the dosage required” value (heart rate [15]; PO) was 4% and the “Heart rate drop at the dosage required” value (heart rate [15]; PO) was 15 No/min. The “Heart rate % drop at the dosage required” value (heart rate [15]; iv) was 15% and the “Heart rate drop at the dosage required” value (heart rate [15]; iv) was 55 No/min.

Reference: patent publication US3954227A, “Pharmaceutical compositions containing 1-(2',3'-dimethylphenoxy)-3-tert. butylamino-2-propanol or pharmaceutically acceptable salt thereof for treating or preventing coronary disorders” (Teikoku Hormone Mfg. Co., Ltd., priority 1969, dated 1976)
